What was measured:
[1] = biological target: T1, Indoleamine 2,3-dioxygenase 1 (Homo sapiens, UniProt P14902); assay: Inhibition of IDO1 in human HeLa cells; format: cell-based
Target sequence in this assay (P14902 whole entry): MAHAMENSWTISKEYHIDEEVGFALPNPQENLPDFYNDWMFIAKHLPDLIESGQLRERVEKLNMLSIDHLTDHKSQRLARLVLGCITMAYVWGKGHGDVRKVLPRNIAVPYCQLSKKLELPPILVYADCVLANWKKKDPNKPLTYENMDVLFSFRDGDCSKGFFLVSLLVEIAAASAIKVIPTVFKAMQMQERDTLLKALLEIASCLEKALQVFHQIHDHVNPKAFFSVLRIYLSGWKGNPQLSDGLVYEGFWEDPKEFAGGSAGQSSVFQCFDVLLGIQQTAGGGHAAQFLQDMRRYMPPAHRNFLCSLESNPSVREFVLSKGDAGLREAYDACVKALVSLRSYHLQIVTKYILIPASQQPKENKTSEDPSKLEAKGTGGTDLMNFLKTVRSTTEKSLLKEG

[2] = Volume of distribution in Wistar Han rat by LC-MS/MS analysis; format: ADME; conditions: in vivo
[3] = Half life in dog; format: ADME, Canis lupus familiaris; conditions: in vivo
[4] = Lipophilicity, logD of the compound by HPLC analysis; format: physicochemical
[5] = Volume of distribution in dog; format: ADME, Canis lupus familiaris; conditions: in vivo
[6] = Unbound clearance in dog; format: ADME, Canis lupus familiaris; conditions: in vivo
[7] = Clearance in dog; format: ADME, Canis lupus familiaris; conditions: in vivo
[8] = biological target: T1, Indoleamine 2,3-dioxygenase 1; assay: Inhibition of IDO1 in IFNgamma/LPS stimulated human whole blood assessed as reduction in kynurenine production using tryptophan as substrate preincubated with compound for 15 mins followed by incubation with IFNgamma/LPS for overnight by LC/MS/MS analysis; format: tissue-based
[9] = Clearance in Wistar Han rat by LC-MS/MS analysis; format: ADME; conditions: in vivo
[10] = Oral bioavailability in Wistar Han rat by LC-MS/MS analysis; format: ADME, organism-based; conditions: in vivo
[11] = Oral bioavailability in dog; format: ADME, organism-based, Canis lupus familiaris; conditions: in vivo
[12] = Half life in Wistar Han rat by LC-MS/MS analysis; format: ADME; conditions: in vivo
[13] = Unbound clearance in Wistar Han rat by LC-MS/MS analysis; format: ADME; conditions: in vivo
[14] = Plasma concentration in CD1 mouse xenografted with mouse CT26 cells overexpressing human IDO1 at 3 mg/kg, po administered as single dose measured after 16 hrs by mass spectrometry; format: ADME, organism-based; conditions: in vivo, BLD = below limit of detection
[15] = Plasma concentration in CD1 mouse xenografted with mouse CT26 cells overexpressing human IDO1 at 3 mg/kg, po administered as single dose measured after 2 hrs by mass spectrometry; format: ADME, organism-based
[16] = Plasma concentration in CD1 mouse xenografted with mouse CT26 cells overexpressing human IDO1 at 3 mg/kg, po administered as single dose measured after 4 hrs by mass spectrometry; format: ADME, organism-based
[17] = Plasma concentration in CD1 mouse xenografted with mouse CT26 cells overexpressing human IDO1 at 3 mg/kg, po administered as single dose measured after 8 hrs by mass spectrometry; format: ADME, organism-based

| Compound | IC50 [1] | Vd [2] | half-life [3] | logD [4] | Vd [5] | CL free [6] | clearance [7] | IC50 [8] | fIC50 [8] | clearance [9] | bioavailability [10] | bioavailability [11] | half-life [12] | CL free [13] | Cp [14] | concentration at 2 h [15] | concentration at 4 h [16] | concentration at 8 h [17] |
| --- | --- | --- | --- | --- | --- | --- | --- | --- | --- | --- | --- | --- | --- | --- | --- | --- | --- | --- |
| Cc1nccc(N2C[C@@H]3C[C@@H]3c3nc(C4(NC(=O)c5ccc(F)cc5)CC4)ccc32)n1 | 2 nM | 1.4 L/kg | 9 h | 2.4 | 1.3 L/kg | 1.56 L/h/kg | 0.738 L/h/kg | 16 nM | 0.8 nM | 1 L/h/kg | 46% | 46% | 1.9 h | 18.4 L/h/kg | – | – | – | – |
| Cc1nccc(N2CCCc3nc(C4(NC(=O)c5ccc(F)cc5)CC4)ccc32)n1 | – | – | – | – | – | – | – | – | – | – | – | – | – | – | Bld | 0.21 µM | 0.09 µM | 0.03 µM |
